Here are results for one compound from ChEMBL document CHEMBL1166009, “A novel and one-pot synthesis of new 1-tosyl pyrrol-2-one derivatives and analysis of carbonic anhydrase inhibitory potencies” (Bioorg Med Chem, 2010).

The target in assay [1] is T1, Carbonic anhydrase 2 (Homo sapiens, UniProt P00918). The assay is described as follows: Inhibition of esterase activity of human carbonic anhydrase 2 by spectrophotometry. The settings on record: read-out: I50.
Assay [2] concerns the target T2, Carbonic anhydrase 1 (Homo sapiens, UniProt P00915). The assay is described as follows: Inhibition of esterase activity of human carbonic anhydrase 1 by spectrophotometry. The settings on record: read-out: I50.
The target in assay [3] is T1, Carbonic anhydrase 2.
Description: Inhibition of esterase activity of human carbonic anhydrase 2 by Lineweaver-Burke plot analysis
In assay [4] the target is T2, Carbonic anhydrase 1.
Description: Inhibition of esterase activity of human carbonic anhydrase 1 by Lineweaver-Burke plot analysis

T2 sequence (P00915 2-261 limits assumed): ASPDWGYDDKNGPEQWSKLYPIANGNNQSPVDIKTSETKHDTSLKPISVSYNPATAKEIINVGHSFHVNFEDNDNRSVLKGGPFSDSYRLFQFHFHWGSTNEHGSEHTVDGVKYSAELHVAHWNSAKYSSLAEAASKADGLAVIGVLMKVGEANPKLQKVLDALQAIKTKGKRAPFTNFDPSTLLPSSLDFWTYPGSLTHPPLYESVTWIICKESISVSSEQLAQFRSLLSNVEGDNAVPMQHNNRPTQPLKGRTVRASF

The Ki is a measure of affinity in units of concentration, obtained from inhibition or displacement. Lower therefore signals a stronger hold on the target. For the compound `Cc1ccc(S(=O)(=O)n2cccc2)cc1`, the IC50 in assay [1] was 14.3 µM; in assay [2] it was 23.1 µM. Moreover, the Ki in assay [3] is 37.5 µM; in assay [4], 42.4 µM.
